# In patent US20120277209A1, “PYRAZINE COMPOUNDS AS PHOSPHODIESTERASE 10 INHIBITORS” (Amgen Inc., priority 2009, published 2012):
# Target: PDE10 (UniProt Q9Y233)
# Test: PDE10 enzyme inhibition, IMAP TR-FRET assay (MPDE10A7 Enzyme Activity and Inhibition)
# Type: biochemical
# Conditions: IC50 class against PDE10; read-out: IC50
# Summary of the method: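 IMAP TR-FRET read-out of PDE10 hydrolysis of fluorescein-cAMP or -cGMP (60 min, room temperature), after a 30 min compound-enzyme preincubation. Enzyme source was PDE10A or tissue homogenate. Averaged IC50s are reported as five range classes.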
row,Molecule,IC50
1,"FC(F)(c1ccc(Oc2nccnc2N2CCOCC2)cc1)c1nc2ccccc2[nH]1 [Example 7, 4-(3-(4-((1H-BENZO[D]IMIDAZOL-2-YL)DIFLUOROMETHYL)PHENOXY)PYRAZIN-2-YL)MORPHOLINE]",100 to 250 nM
2,"COCC(=O)N1CCC(c2nccnc2Oc2ccc(C(=O)c3nc4ccccc4[nH]3)cc2)CC1 [Example 232, 1-(4-(3-(4-(1H-benzo[d]imidazole-2-carbonyl)phenoxy)pyrazin-2-yl)piperidin-1-yl)-2-methoxyethanone]",< 25 nM
3,"CC(C)(C)OC(=O)N1CCC(CO)(c2nccnc2Oc2ccc(Nc3nc4ccccc4s3)cc2)CC1 [Example 206, tert-butyl 4-(3-(4-(benzo[d]thiazol-2-ylamino)phenoxy)pyrazin-2-yl)-4-(hydroxymethyl)piperidine-1-carboxylate]",25 to 100 nM
4,"COC(=O)C1CN(c2nccnc2Oc2ccc(Nc3nc4ccccc4s3)cc2)C1 [Example 83, methyl 1-(3-(4-(benzo[d]thiazol-2-ylamino)phenoxy)pyrazin-2-yl)azetidine-3-carboxylate]",< 25 nM
5,(6-fluoro-1-methyl-1H-benzo[d]imidazol-2-yl)(4-(3-(tetrahydro-2H-pyran-4-yl)pyrazin-2-yloxy)phenyl)methanone and (5-fluoro-1-methyl-1H-benzo[d]imidazol-2-yl)(4-(3-(tetrahydro-2H-pyran-4-yl)pyrazin-2-yloxy)phenyl)methanone [Example 185],< 25 nM
6,"CC1CN(c2nccnc2Oc2ccc(Nc3nc4ccccc4s3)cc2)CC(=O)N1 (racemic) [Example 94, 4-(3-(4-(benzo[d]thiazol-2-ylamino)phenoxy)pyrazin-2-yl)-6-methylpiperazin-2-one]",< 25 nM
7,"COc1ccccc1-c1nccnc1Oc1ccc(C(=O)c2nc3ccccc3[nH]2)cc1 [Example 114, (1H-benzo[d]imidazol-2-yl)(4-(3-(2-methoxyphenyl)pyrazin-2-yloxy)phenyl)methanone]",25 to 100 nM
8,"N#CCC(=O)N1CCC(c2nccnc2Oc2ccc(C(=O)c3nc4ccccc4[nH]3)cc2)CC1 [Example 247, 3-(4-(3-(4-(1H-benzo[d]imidazole-2-carbonyl)phenoxy)pyrazin-2-yl)piperidin-1-yl)-3-oxopropanenitrile]",< 25 nM
9,"CC(=O)N1CCC(c2nccnc2Oc2ccc(Nc3nc4ccccc4s3)nc2)CC1 [Example 249, 1-(4-(3-(6-(benzo[d]thiazol-2-ylamino)pyridin-3-yloxy)pyrazin-2-yl)piperidin-1-yl)ethanone]",250 to 1000 nM
10,"O=C(c1ccc(Oc2nccnc2Cl)cc1)c1nc2ccccc2[nH]1 [Example 3, (1H-BENZO[D]IMIDAZOL-2-YL)(4-(3-CHLOROPYRAZIN-2-YLOXY)PHENYL)METHANONE]",1000 to 5000 nM
11,"Cn1c(C(=O)c2ccc(Oc3nccnc3C3CCOCC3)cc2)nc2ccccc21 [Example 184, (1-methyl-1H-benzo[d]imidazol-2-yl)(4-(3-(tetrahydro-2H-pyran-4-yl)pyrazin-2-yloxy)phenyl)methanone]",< 25 nM
12,"Cc1ncccc1-c1nccnc1Oc1ccc(C(=O)c2nc3ccccc3n2C)cc1 [Example 110, (1-methyl-1H-benzo[d]imidazol-2-yl)(4-(3-(2-methylpyridin-3-yl)pyrazin-2-yloxy)phenyl)methanone]",25 to 100 nM
13,"O=C(c1ccc(Oc2nccnc2C2CCOCC2)cc1)c1nc2ncccc2[nH]1 [Example 182, (1H-imidazo[4,5-b]pyridin-2-yl)(4-(3-(tetrahydro-2H-pyran-4-yl)pyrazin-2-yloxy)phenyl)methanone]",< 25 nM
14,"O=C(c1ccc(Oc2nccnc2OCc2ccncc2)cc1)c1nc2ccccc2[nH]1 [Example 176, (1H-benzo[d]imidazol-2-yl)(4-(3-(pyridin-4-ylmethoxy)pyrazin-2-yloxy)phenyl)methanone]",100 to 250 nM
15,"COCC1CCCN(c2nccnc2Oc2ccc(Nc3nc4ccccc4s3)cc2)C1 (stereo not shown) [Example 98, N-(4-(3-(3-(methoxymethyl)-piperidin-1-yl)pyrazin-2-yloxy)-phenyl)benzo[d]thiazol-2-amine]",25 to 100 nM

# Next, values leading:
row,IC50,Molecule
1,250 to 1000 nM,"COCCOc1nccnc1Oc1ccc(C(=O)c2nc3ccccc3[nH]2)cc1 [Example 165, (1H-benzo[d]imidazol-2-yl)(4-(3-(2-methoxyethoxy)pyrazin-2-yloxy)phenyl)methanone]"
2,< 25 nM,"CN1CCC(c2nccnc2Oc2ccc(C(=O)c3nc4ccccc4[nH]3)cc2)=CC1=O [Example 252, 4-(3-(4-(1H-benzo[d]imidazole-2-carbonyl)phenoxy)pyrazin-2-yl)-1-methyl-5,6-dihydropyridin-2(1H)-one]"
3,25 to 100 nM,"c1ccc2sc(Nc3ccc(Oc4nccnc4NC4CCCOC4)cc3)nc2c1 (stereo not shown) [Example 58, N-(4-(3-(TETRAHYDRO-2H-PYRAN-3-YLAMINO)PYRAZIN-2-YLOXY)PHENYL)BENZO[D]THIAZOL-2-AMINE]"
4,25 to 100 nM,"c1ccc2sc(Nc3ccc(Oc4nccnc4N4CCCC4)cc3)nc2c1 [Example 68, N-(4-(3-(pyrrolidin-1-yl)pyrazin-2-yloxy)phenyl)benzo[d]thiazol-2-amine]"
5,< 25 nM,"O=C(c1ccc(Oc2nccnc2C2CCSCC2)cc1)c1nc2ccccc2[nH]1 [Example 222, 1H-BENZO[D]IMIDAZOLE-2-YL(4-(3-(TETRAHYDRO-2H-THIOPYRAN-4-YL)PYRAZIN-2-YLOXY)PHENYL)METHANONE]"
6,< 25 nM,"O=C1CCCC(c2nccnc2Oc2ccc(Nc3nc4ccccc4s3)cc2)C1 (racemic) [Example 194, (rac)-3-(3-(4-(benzo[d]thiazol-2-ylamino)phenoxy)pyrazin-2-yl)cyclohexanone]"
7,25 to 100 nM,"COc1ncccc1-c1nccnc1Oc1ccc(Nc2nc3ccccc3s2)c(F)c1 [Example 157, N-(2-fluoro-4-(3-(2-methoxypyridin-3-yl)pyrazin-2-yloxy)phenyl)benzo[d]thiazol-2-amine]"
8,25 to 100 nM,"COc1ccc(-c2nccnc2Oc2ccc(C(=O)c3nc4ccccc4[nH]3)cc2)c(OC)n1 [Example 111, (1H-benzo[d]imidazol-2-yl)(4-(3-(2,6-dimethoxypyridin-3-yl)pyrazin-2-yloxy)phenyl)methanone]"
9,< 25 nM,"Cc1cc(-c2nccnc2Oc2ccc(Nc3nc4ccccc4s3)cc2)ccn1 [Example 135, N-(4-(3-(2-methylpyridin-4-yl)pyrazin-2-yloxy)phenyl)benzo[d]thiazol-2-amine]"

# Same assay, conditions: PDE10 enzyme inhibition; average IC50 data for each compound; read-out: Average IC50
row,Molecule,IC50
1,C[C@@H]1CN(c2nccnc2Oc2ccc(C(=O)c3nc4ccccc4[nH]3)cc2)CC(=O)N1 (stereo in doubt),2.57 nM
2,Fc1cc(Oc2nccnc2C2CCOCC2)ccc1Nc1nc2ccccc2s1 [drawing 877],2.64 nM
3,Fc1cc(Oc2nccnc2Cl)ccc1Nc1nc2ccccc2s1 [drawing 836],614 nM
4,CC(C)(O)[C@@H]1CCCN1c1nccnc1Oc1ccc(Nc2nc3ccccc3s2)cc1 [drawing 737],60 nM
5,C[C@H](F)C(=O)N1CCC(c2nccnc2Oc2ccc(Nc3nc4ccccc4s3)cc2)CC1 [drawing 979],0.156 nM
6,COc1ncccc1-c1nccnc1Oc1ccc(C(=O)c2nc3ccccc3n2CCF)cc1 [drawing 994],5.83 nM
7,c1ccc(Nc2ccc(Oc3nccnc3NCC3CCNCC3)cc2)nc1,814 nM
8,O[C@H]1CCC[C@H](c2nccnc2Oc2ccc(Nc3nc4ccccc4s3)cc2)C1 [drawing 894],1.57 nM
9,N#C[C@@H]1CCN(c2nccnc2Oc2ccc(C(=O)c3nc4ccccc4[nH]3)cc2)C1 [drawing 828],1.76 nM

# More lines, now with the values ahead:
row,IC50,Molecule
1,7.9 nM,O[C@@H]1C=C(c2nccnc2Oc2ccc(Nc3nc4ccccc4s3)c(F)c2)CCC1 (stereo in doubt)
2,14.2 nM,O=C(c1ccc(Oc2nccnc2C2=CCC(F)(F)CC2)cc1)c1nc2ccccc2[nH]1 [drawing 862]
3,12.8 nM,CN1CCC2(CCN(c3nccnc3Oc3ccc(C(=O)c4nc5ccccc5[nH]4)cc3)CC2)C1=O
4,0.521 nM,COCC(=O)N1CCC(c2nccnc2Oc2ccc(C(=O)c3nc4ccccc4n3C)cc2)CC1 [drawing 982]
5,5.56 nM,O=C(c1ccc(Oc2nccnc2OCC2CCOC2)cc1)c1nc2ccccc2[nH]1 (stereo not shown) [drawing 854]
6,67.8 nM,c1ccc2sc(Nc3ccc(Oc4nccnc4N4CCC5(CC4)OCCO5)cc3)nc2c1 [drawing 784]
7,10.8 nM,CCOC(=O)[C@@H]1CCCN(c2nccnc2Oc2ccc(C(=O)c3nc4ccccc4[nH]3)cc2)C1 [drawing 830]
8,37 nM,COC1CCN(c2nccnc2Oc2ccc(Nc3nc4ccccc4s3)cc2)CC1 [drawing 767]
9,51.5 nM,O=C(c1ccc(Oc2nccnc2Oc2cccnc2)cc1)c1nc2ccccc2[nH]1 [drawing 851]
10,24.6 nM,O=C(c1ccc(Oc2nccnc2C(=O)NCCc2ccc(C(F)(F)F)cc2)cc1)c1nc2ccccc2[nH]1 [drawing 807]
11,1.16 nM,CC(=O)N1CC=C(c2nccnc2Oc2ccc(C(=O)c3nc4ccccc4[nH]3)cc2)CC1 [drawing 751]
12,751 nM,Fc1cccc2nc(Nc3ccc(Oc4nccnc4Cl)cc3)sc12 [drawing 826]
13,0.119 nM,CC(=O)O[C@@H](C)C(=O)N1CCC(c2nccnc2Oc2ccc(C(=O)c3nc4ccccc4[nH]3)cc2)CC1 (stereo in doubt)

# Same assay, conditions: PDE10 enzyme inhibition; chiral compounds separated from racemic mixtures; read-out: IC50
row,IC50,Molecule
1,< 25 nM,"O[C@H]1CCC[C@@H](c2nccnc2Oc2ccc(Nc3nc4ccccc4s3)cc2)C1 [Example 271, (1S,3R)-3-(3-(4-(benzo[d]thiazol-2-ylamino)phenoxy)pyrazin-2-yl)cyclohexanol]"
2,< 25 nM,"N#C[C@H]1CCN(c2nccnc2Oc2ccc(C(=O)c3nc4ccccc4[nH]3)cc2)C1 [Example 262, (S)-1-(3-(4-(1H-benzo[d]imidazole-2-carbonyl)phenoxy)pyrazin-2-yl)pyrrolidine-3-carbonitrile]"
3,< 25 nM,"O=C(c1ccc(Oc2nccnc2[C@@H]2CCC[C@@H](O)C2)cc1)c1nc2ccccc2[nH]1 (stereo in doubt) [Example 274, (1H-benzo[d]imidazol-2-yl)(4-(3-((1R,3R)-3-hydroxycyclohexyl)pyrazin-2-yloxy)phenyl) methanone]"
